Values quoted from earlier work, collected in patent US20060246153A1, “Herbal compositions for the teatment and prevention of prostate disorders” (priority 2003, published 2006).

Test system: localised prostate adenocarcinoma
Conditions: 28 mg a day in the diet for three weeks

CC(C)=CCC/C(C)=C/C=C/C(C)=C/C=C/C(C)=C/C=C/C=C(C)/C=C/C=C(C)/C=C/C=C(\C)CCC=C(C)C [lycopene]
oxidative damage to the DNA of the post-operative biopsy tissue: greatly reduced
plasma levels of PSA (prostate-specific antigen): reduced
